# Experimental data: publication PMC6219668 (Oncotarget, 2018)
# System: panel of nearly 500 cancer cell lines
# Assay: Cancer Cell Line Encyclopedia profiling, 3-day CellTiter-Glo
# Type: cell-based
# Set-up: Amax: unit not given here
structure (smiles),measurement,setting,value
"CN(C)C(=O)c1cc2cnc(Nc3ccc(N4CCNCC4)cn3)nc2n1C1CCCC1 [Ribociclib, 7-cyclopentyl-2-(5-piperazin-1-yl-pyridin-2-ylamino)-7H-pyrrolo[2,3-d]pyrimidine-6-carboxylic acid dimethylamide]",EC50,"Homo sapiens, TCC-SUP",> 8 µM
same,IC50,"Homo sapiens, TCC-SUP",> 8 µM
same,EC50,"Homo sapiens, TE-11",2.09 µM
same,IC50,"Homo sapiens, TE-11",> 8 µM
same,EC50,"Homo sapiens, TE-15",1.23 µM
same,IC50,"Homo sapiens, TE-15",> 8 µM
same,EC50,"Homo sapiens, TOV21G",1.23 µM
same,IC50,"Homo sapiens, TOV21G",> 8 µM
same,EC50,"Homo sapiens, TOV112D",0.995 µM
same,IC50,"Homo sapiens, TOV112D",> 8 µM
same,EC50,"Homo sapiens, Toledo",1.52 µM
same,IC50,"Homo sapiens, Toledo",> 8 µM
same,EC50,"Homo sapiens, U2OS",2.09 µM
same,IC50,"Homo sapiens, U2OS",> 8 µM
same,EC50,"Homo sapiens, U-87 MG",> 8 µM
same,IC50,"Homo sapiens, U-87 MG",> 8 µM
same,EC50,"Homo sapiens, U-118-MG",2.68 µM
same,IC50,"Homo sapiens, U-118-MG",> 8 µM
same,EC50,"Homo sapiens, U-937",1.74 µM
same,IC50,"Homo sapiens, U-937",3.52 µM
same,EC50,"Homo sapiens, UACC-62",1.62 µM
same,IC50,"Homo sapiens, UACC-62",> 8 µM
same,EC50,"Homo sapiens, UACC-257",0.577 µM
same,IC50,"Homo sapiens, UACC-257",> 8 µM
same,EC50,"Homo sapiens, UACC-812",> 8 µM
same,IC50,"Homo sapiens, UACC-812",> 8 µM
same,EC50,"Homo sapiens, UMUC3",> 8 µM
same,IC50,"Homo sapiens, UMUC3",> 8 µM
same,EC50,"Homo sapiens, WM 266-4",0.946 µM
same,IC50,"Homo sapiens, WM 266-4",> 8 µM
same,EC50,"Homo sapiens, WM793",> 8 µM
same,IC50,"Homo sapiens, WM793",> 8 µM
same,EC50,"Homo sapiens, WM-115",> 8 µM
same,IC50,"Homo sapiens, WM-115",> 8 µM
same,EC50,"Homo sapiens, YKG-1",> 8 µM
same,IC50,"Homo sapiens, YKG-1",> 8 µM
same,EC50,"Homo sapiens, ZR-75-1",> 8 µM
same,IC50,"Homo sapiens, ZR-75-1",> 8 µM
same,EC50,"Homo sapiens, ZR-75-30",> 8 µM
same,IC50,"Homo sapiens, ZR-75-30",> 8 µM
same,EC50,Hs766T,> 8 µM
same,IC50,Hs766T,> 8 µM
same,EC50,IGR-39,> 8 µM
same,IC50,IGR-39,> 8 µM
same,EC50,JHH7,1.83 µM
same,IC50,JHH7,> 8 µM
same,EC50,JHH-2,7.93 µM
same,IC50,JHH-2,> 8 µM
same,EC50,JHH-4,2.24 µM
same,IC50,JHH-4,> 8 µM
same,EC50,JMSU-1,> 8 µM
same,IC50,JMSU-1,> 8 µM
same,EC50,KE-97,3.81 µM
same,IC50,KE-97,4.53 µM
same,EC50,KHM-1B,0.34 µM
same,IC50,KHM-1B,> 8 µM
same,IC50,KMM-1,4.23 µM
same,EC50,KMRC-1,0.907 µM
same,IC50,KMRC-1,> 8 µM
same,EC50,KMS-26,3.37 µM
same,IC50,KMS-26,2.53 µM
same,EC50,Karpas-620,0.0773 µM
same,IC50,Karpas-620,> 8 µM
same,EC50,Kelly,6.64 µM
same,IC50,Kelly,6.64 µM
same,EC50,LOU-NH91,> 8 µM
same,IC50,LOU-NH91,> 8 µM
same,EC50,LUDLU-1,0.0154 µM
same,IC50,LUDLU-1,> 8 µM
same,EC50,Mono-Mac-1,0.704 µM
same,IC50,Mono-Mac-1,3.22 µM
same,EC50,NCI-H322,> 8 µM
same,IC50,NCI-H322,> 8 µM
same,EC50,NCI-H1339,> 8 µM
same,IC50,NCI-H1339,> 8 µM
same,EC50,NCI-H1568,> 8 µM
same,IC50,NCI-H1568,> 8 µM
same,EC50,NCI-H1915,> 8 µM
same,IC50,NCI-H1915,> 8 µM
same,EC50,NCI-H2023,0.0698 µM
same,IC50,NCI-H2023,> 8 µM
same,EC50,NCI-H2172,> 8 µM
same,IC50,NCI-H2172,> 8 µM
same,EC50,OCUM1,> 8 µM
same,IC50,OCUM1,> 8 µM
same,EC50,OE21,> 8 µM
same,IC50,OE21,4.52 µM
same,EC50,ONCO-DG-1,> 8 µM
same,IC50,ONCO-DG-1,> 8 µM
same,EC50,PK-59,> 8 µM
same,IC50,PK-59,> 8 µM
same,EC50,PL45,0.0975 µM
same,IC50,PL45,> 8 µM
same,EC50,PaTu 8902,> 8 µM
same,IC50,PaTu 8902,> 8 µM
same,EC50,QGP-1,0.309 µM
same,IC50,QGP-1,2.33 µM
same,EC50,SH-10-TC,> 8 µM
same,IC50,SH-10-TC,> 8 µM
same,EC50,SUIT-2,1.62 µM
same,IC50,SUIT-2,7.97 µM
same,EC50,SW579,0.929 µM
same,IC50,SW579,> 8 µM
same,EC50,SW1271,2.54 µM
same,IC50,SW1271,> 8 µM
same,EC50,TC-71,> 8 µM
same,IC50,TC-71,> 8 µM
same,EC50,WM983B,0.114 µM
same,IC50,WM983B,0.327 µM
same,EC50,WM-1799,0.202 µM
same,IC50,WM-1799,> 8 µM
same,Amax,a172 (central_nervous_system),-18.6367
same,Amax,a204 (soft_tissue),-24.3309
same,Amax,a253 (salivary_gland),9.763
same,Amax,a2058 (skin),0.435
same,Amax,g402 (soft_tissue),-59.1579
same,Amax,gamg (central_nervous_system),-4.349
same,Amax,gb1 (central_nervous_system),-5.547
same,Amax,gciy (stomach),-6.8217
same,Amax,gct (soft_tissue),-35.032
same,Amax,gi1 (central_nervous_system),1.537
same,Amax,glc82 (lung),6.841
same,Amax,gms10 (central_nervous_system),6.4331
same,Amax,granta519 (haematopoietic_and_lymphoid_tissue),-7.882
same,Amax,h4 (central_nervous_system),-7.315
same,Amax,hara (lung),-39.5316
same,Amax,hcc15 (lung),11.5352
same,Amax,hcc44 (lung),-21.2383
same,Amax,hcc56 (large_intestine),-7.243
same,Amax,hcc70 (breast),9.331
same,Amax,hcc78 (lung),8.5798
same,Amax,hcc827 (lung),5.053
same,Amax,hcc1187 (breast),-1.8256
same,Amax,hcc1395 (breast),4.555
same,Amax,hcc1569 (breast),-4.171
same,Amax,hcc1806 (breast),-2.407
same,Amax,hcc1954 (breast),5.4786
same,Amax,hcc2935 (lung),3.035
same,Amax,hcc4006 (lung),-45.676
same,Amax,hct15 (large_intestine),-18.4329
same,Amax,hct116 (large_intestine),-41.8056
same,Amax,hdmyz (haematopoietic_and_lymphoid_tissue),-70.2074
same,Amax,hdqp1 (breast),-11.6831
same,Amax,hec1a (endometrium),-0.2935
same,Amax,hec1b (endometrium),-44.265
same,Amax,hec6 (endometrium),9.745
same,Amax,hec59 (endometrium),-17.0499
same,Amax,hec151 (endometrium),0.04545
same,Amax,hec251 (endometrium),3.202
same,Amax,hec265 (endometrium),6.223
same,Amax,hel9217 (haematopoietic_and_lymphoid_tissue),0.4869
same,Amax,hep3b217 (liver),2.738
same,Amax,hepg2 (liver),-37.2895
same,Amax,heya8 (ovary),-44.7632
same,Amax,hgc27 (stomach),-65.8757
same,Amax,hh (haematopoietic_and_lymphoid_tissue),-3.613
same,Amax,hle (liver),-18.5726
same,Amax,hlf (liver),6.292
same,Amax,hmc18 (breast),-31.7315
same,Amax,hmcb (skin),-41.1129
same,Amax,hos (bone),-0.8851
same,Amax,hpac (pancreas),-55.1912
same,Amax,hpafii (pancreas),-3.9084
same,Amax,hs229t (lung),-28.1577
same,Amax,hs294t (skin),-32.1941
same,Amax,hs578t (breast),-21.2687
same,Amax,hs695t (skin),-3.506
same,Amax,hs729 (soft_tissue),10.8537
same,Amax,hs739t (breast),-26.62
same,Amax,hs746t (stomach),-37.6649
same,Amax,hs766t (pancreas),-32.0513
same,Amax,hs840t (upper_aerodigestive_tract),-29.2379
same,Amax,hs852t (skin),-6.059
same,Amax,hs936t (skin),-38.0651
same,Amax,hs939t (skin),-14.4612
same,Amax,hsc2 (upper_aerodigestive_tract),0.4805
same,Amax,ht29 (large_intestine),-56.1634
same,Amax,ht144 (skin),-18.5925
same,Amax,ht1080 (soft_tissue),-36.8044
same,Amax,ht1197 (urinary_tract),-10.59
same,Amax,ht1376 (urinary_tract),7.547
same,Amax,ht (haematopoietic_and_lymphoid_tissue),8.223
same,Amax,hucct1 (biliary_tract),1.7282
same,Amax,huh1 (liver),-43.6531
same,Amax,hupt3 (pancreas),-32.6303
same,Amax,hupt4 (pancreas),-52.4819
same,Amax,hut78 (haematopoietic_and_lymphoid_tissue),8.299
same,Amax,ialm (lung),0.7254
same,Amax,igr37 (skin),-22.1572
same,Amax,igr39 (skin),0.9211
same,Amax,igrov1 (ovary),-1.9772
same,Amax,im95 (stomach),-0.7889
same,Amax,imr32 (autonomic_ganglia),-55.0108
same,Amax,ipc298 (skin),-16.0715
same,Amax,ishikawaheraklio02er (endometrium),0.9691
same,Amax,istmes1 (pleura),-35.2757
same,Amax,istmes2 (pleura),-42.1214
same,Amax,j82 (urinary_tract),-0.8954
same,Amax,jhh2 (liver),-16.2272
same,Amax,jhh4 (liver),-26.3135
same,Amax,jhh5 (liver),-74.5916
same,Amax,jhh6 (liver),4.949
same,Amax,jhh7 (liver),-42.8596
same,Amax,jhos2 (ovary),12.8505
same,Amax,jhos4 (ovary),4.354
same,Amax,jhuem2 (endometrium),-27.6126
